# In ChEMBL document CHEMBL4028891, “X-ray Characterization and Structure-Based Optimization of Striatal-Enriched Protein Tyrosine Phosphatase Inhibitors” (J Med Chem, 2017):
# Molecular target: T1, Tyrosine-protein phosphatase non-receptor type 5 (Homo sapiens, UniProt P54829)
# T1 sequence (P54829 whole entry): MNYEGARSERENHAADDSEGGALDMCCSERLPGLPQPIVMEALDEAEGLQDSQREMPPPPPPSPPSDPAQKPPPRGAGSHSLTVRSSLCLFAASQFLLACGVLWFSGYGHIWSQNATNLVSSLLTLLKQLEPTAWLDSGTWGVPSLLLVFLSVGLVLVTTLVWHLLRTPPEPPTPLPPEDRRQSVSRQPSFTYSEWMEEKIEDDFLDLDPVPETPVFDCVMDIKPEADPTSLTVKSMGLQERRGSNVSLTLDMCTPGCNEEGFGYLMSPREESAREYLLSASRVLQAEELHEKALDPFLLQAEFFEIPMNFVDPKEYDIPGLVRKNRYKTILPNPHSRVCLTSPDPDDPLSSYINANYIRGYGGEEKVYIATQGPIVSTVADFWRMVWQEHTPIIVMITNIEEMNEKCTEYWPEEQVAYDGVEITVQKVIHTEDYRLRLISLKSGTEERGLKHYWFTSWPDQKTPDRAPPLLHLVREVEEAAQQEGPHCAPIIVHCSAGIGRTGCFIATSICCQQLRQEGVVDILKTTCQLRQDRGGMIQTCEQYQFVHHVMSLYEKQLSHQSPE
# Assay: Binding affinity to 6His-tagged STEP phosphatase domain (258 to 539 residues) (unknown origin) expressed in Escherichia coli BL21 Gold (DE3) after 90 secs at 30 degC by isothermal titration calorimetry assay
row,Structure (SMILES),Kd [µM]
1,O=P(O)(O)[C@H](O)c1ccc(-c2cccc([C@@H](O)c3ccc(Cl)c(Cl)c3)c2)cc1,27.2
2,O=P(O)(O)[C@H](O)c1ccc(-c2cccc([C@H](O)c3ccc(Cl)c(Cl)c3)c2)cc1,31.4
3,O=P(O)(O)C(F)(F)c1cccc(-c2cccc(C3CCCCC3)c2O)c1,70.4
